How the values were obtained:
DIV7 neurons [1] = assay: CellTiter-Glo Luminescent cell viability of DIV7 neurons; format: cell-based; settings: for viability of DIV7 neurons: 0, 1, 2, 4, 6, 8 and 16 mM, each compared with the 0 mM group, FIG. 12
Text: Effects of different concentrations of fructose on the viability of DIV7 neurons were studied using a CellTiter-Glo® Luminescent cell viability test kit, and an added concentration of the fructose was explored in the cell system.

OGD-injured neurons [2] = assay: Survival of OGD-injured neurons (TUNEL and MAP2 staining), fructose at different stages; format: cell-based; settings: 24 h reperfusion
Experimental: (1) Cell model: the cerebral ischemic stroke was simulated using an OGD model, DIV7 primary neurons were treated with a glucose-free medium in a hypoxic box (1% O2+5% CO2+94% N2), oxygen glucose deprivation was conducted at 37° C. for 1.5 h, and the primary neurons was cultured in a normal medium for 24 h under normoxic conditions. (3) Survival of neurons: a survival state of neurons was counted by TUNEL staining and immunofluorescence staining; the neuronal cells were subjected to growing on glass coverslips, fixated with 4% PFA for 10 min, washed with PBS, and subjected to incubation in a blocking buffer for 1 h, and a MAP2 primary antibody working solution was added to conduct culture overnight at 4° C.; the cells were washed with PBS, a MAP2 secondary antibody working solution was added to incubate at room temperature for 1 h; the cells were washed with PBS, subjected to TUNEL staining, and a mounting agent containing 4′,6-diamidino-2-phenylindole (DAPI) was added for mounting. Data was collected through a focusing microscope and the number of cell deaths was counted using ImageJ. (1) Neuron survival: DIV7 neurons were divided into four groups: a control group, an OGD group (for OGD treatment), an OGD+Fru(per) group (fructose treatment during OGD treatment), and an OGD+Fru(post) group (fructose treatment in a reperfusion stage after OGD treatment). […]

MCAO rats = assay: MCAO rat model: Longa behavioral score and TTC cerebral infarct area; format: in vivo; settings: for area of cerebral infarction (TTC staining) / neurobehavioral characteristics (Longa scoring): 24 h
OGD-injured neurons [3] = assay: ATP and NADPH content of OGD-injured neurons (lentiviral sensors), fructose at different stages; format: cell-based, mice
Text: (4) Content of ATP and NADPH: cortical neurons were isolated from P0-P1 suckling mice, the neurons were inoculated on a 7th day by adding a lentiviral transfection protein vector that specifically detects ATP and a lentiviral transfection protein vector iNap that specifically detects NADPH; the neurons were fixated with 4% PFA, subjected to immunofluorescence staining, and data was collected through a confocal microscope, the fluorescence intensity of virus vector protein was counted using ImageJ, and the contents of ATP and NADPH were calculated. By detecting an expression level of the lentiviral transfection protein vector that specifically detects ATP and the lentiviral transfection protein vector iNap that specifically detects NADPH in the primary neuron culture system, the levels are characterized for neuronal energy metabolism and redox metabolism. (2) Content of ATP and NADPH: cortical neurons were isolated from P0-P1 suckling mice, the neurons were inoculated on a 7th day by adding a lentiviral transfection protein vector that specifically detects ATP and a lentiviral transfection protein vector iNap that specifically detects NADPH; the neurons were divided into four groups: a control group, an OGD group (for OGD treatment), an OGD+Fru(per) group (fructose treatment during OGD treatment), and an OGD+Fru(post) group (fructose treatment in a reperfusion stage after OGD treatment). Reperfusion was conducted 24 h after OGD; the neurons were fixated with 4% PFA, subjected to MAP2 immunofluorescence staining to observe the content of ATP and NADPH of the neurons.

OGD-injured neurons [4] = assay: CellTiter-Glo Luminescent cell viability of OGD-injured neurons; settings: OGD 1.5 h, 2 mM, after 24 h, FIG. 13
Experimental: The CellTiter-Glo® Luminescent cell viability test kit was used: the neuronal cells were cultured using a 96-well plate, and OGD treatment was conducted on neurons for 1.5 h on a 7th day; fructose, fructose-1,6-bisphosphate and glycerol fructose were added each at a concentration of 2 mM; after 24 h, the cell viability was detected by the kit.

OGD-injured neurons [5] = assay: Survival rate of OGD-treated neurons by MAP2 and DAPI immunofluorescence staining; settings: OGD 1.5 h, 2 mM, after 24 h, FIG. 14
Experimental: Immunofluorescence staining method: the neurons were cultured for 7 d, and subjected to OGD treatment for 1.5 h; fructose, fructose-1,6-bisphosphate and glycerol fructose were added each at a concentration of 2 mM; after 24 h, MAP2 and DAPI staining were conducted.

DIV7 neurons [6] = assay: IPC with fructose pathway inhibitor sorbinil: ATP and NADPH level of DIV7 neurons; format: cell-based, mice; settings: fructose pathway inhibited by sorbinil, cellular level
Experimental: Secondly, to further verify effects of the fructose pathway in IPC ischemia protection, a fructose pathway inhibitor sorbinil was added at the cellular level. […] (4) Content of ATP and NADPH: cortical neurons were isolated from P0-P1 suckling mice, the neurons were inoculated on a 7th day by adding a lentiviral transfection protein vector that specifically detects ATP and a lentiviral transfection protein vector iNap that specifically detects NADPH; the neurons were fixated with 4% PFA, subjected to immunofluorescence staining, and data was collected through a confocal microscope, the fluorescence intensity of virus vector protein was counted using ImageJ, and the contents of ATP and NADPH were calculated.

[7] = intraperitoneal injection after suture plug removal (MCAO+Fru-2)
[8] = tail vein injection after suture plug removal (MCAO+Fru-1)
[9] = fructose added in the OGD phase
[10] = fructose added in the reperfusion phase

Structure (SMILES) | viability of DIV7 neurons (DIV7 neurons [1]) | concentration with better effect of improving the activity of DIV7 neuronal cells (DIV7 neurons [1]; different concentrations of fructose, FIG. 11) [mM] | neuronal death rate caused by OGD (OGD-injured neurons [2]; fructose added in the OGD phase (OGD+Fru(per))) | neuronal death rate caused by OGD (OGD-injured neurons [2]; fructose added in the reperfusion phase (OGD+Fru(post))) | comparison of routes of administration (tail vein vs intraperitoneal) (MCAO rats; MCAO rats, neurobehavior and infarct area) | area of cerebral infarction (TTC staining) (MCAO rats; [7]) | neurobehavioral characteristics (Longa scoring) (MCAO rats; [7]) | area of cerebral infarction (TTC staining) (MCAO rats; [8]) | neurobehavioral characteristics (Longa scoring) (MCAO rats; [8]) | ATP production of neurons (OGD-injured neurons [3]; [9]) | NADPH production of neurons (OGD-injured neurons [3]; [9]) | ATP production of neurons (OGD-injured neurons [3]; [10]) | NADPH production of neurons (OGD-injured neurons [3]; [10]) | cell viability of OGD-injured neurons (OGD-injured neurons [4]) | survival rate of neurons after OGD (OGD-injured neurons [5]) | content of ATP after IPC (DIV7 neurons [6]; FIGS. 4A-B) | content of NADPH after IPC (DIV7 neurons [6]; FIGS. 5A-B)
O=C(CO)[C@@H](O)[C@H](O)[C@H](O)CO [fructose] | can significantly enhance viability of the neurons | 1 to 6 | can reduce the neuronal death rate caused by OGD | can reduce the neuronal death rate caused by OGD | tail vein injection is generally better than the intraperitoneal injection | reduce the area of cerebral infarction | can improve the neurobehavioral characteristics of MCAO rats | reduce the area of cerebral infarction | can improve the neurobehavioral characteristics of MCAO rats | can enhance the decrease in ATP and NADPH production of neurons caused by OGD | can enhance the decrease in ATP and NADPH production of neurons caused by OGD | can enhance the decrease in ATP and NADPH production of neurons caused by OGD | can enhance the decrease in ATP and NADPH production of neurons caused by OGD | can significantly increase the cell viability of OGD-injured neurons | – | – | –
O=C(COP(=O)(O)O)[C@@H](O)[C@H](O)[C@H](O)COP(=O)(O)O [reference compound] | can improve neuron viability | – | – | – | – | – | – | – | – | – | – | – | – | have a tendency to increase the viability of OGD-injured neurons | can improve the survival rate of the neurons | – | –
O=C1NC(=O)[C@@]2(CCOc3ccc(F)cc32)N1 [sorbinil] | – | – | – | – | – | – | – | – | – | – | – | – | – | – | – | the IPC no longer increases the contents of ATP and NADPH | the IPC no longer increases the contents of ATP and NADPH

— US11911477B2, “Use of fructose in preparing drug for treating ischemic injury” (Beihang University, priority 2021, dated 2024)
